# Measured values reported in the supplement of paper PMC11451515.
# Test system: P12-Ichikawa
# Assay: cell viability relative to DMSO control; higher = less cytotoxic
# Details: 48 h
# Method in brief: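 Before seeding, each leukemia line was adapted for at least four passages in each medium. NOMO1 or SEM cells (500 cells/well) and P12-Ichikawa cells (1000 cells/well) went into 1536-well plates at 5 μl, then received library compounds in DMSO by pin dosing across 11 threefold concentrations, 47 μM to 0.79 nM. Readout was CellTiter-Glo One luminescence after 48 h at 37°C, and viability is given as a per-plate percentage of DMSO wells, with cell-free wells as background.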
# [1] = HPLM + 10% dialyzed FBS, 0.000781 µM
# [2] = HPLM + 10% dialyzed FBS, 0.00234 µM
# [3] = HPLM + 10% dialyzed FBS, 0.00702 µM
# [4] = HPLM + 10% dialyzed FBS, 0.0211 µM
# [5] = HPLM + 10% dialyzed FBS, 0.0632 µM
# [6] = HPLM + 10% dialyzed FBS, 0.19 µM
# [7] = HPLM + 10% dialyzed FBS, 0.569 µM
# [8] = HPLM + 10% dialyzed FBS, 1.71 µM
# [9] = HPLM + 10% dialyzed FBS, 5.12 µM
# [10] = HPLM + 10% dialyzed FBS, 15.4 µM
# [11] = HPLM + 10% dialyzed FBS, 46.1 µM
# [12] = RPMI 5 mM glucose + 10% FBS, 0.000781 µM
# [13] = RPMI 5 mM glucose + 10% FBS, 0.00234 µM
# [14] = RPMI 5 mM glucose + 10% FBS, 0.00702 µM
# [15] = RPMI 5 mM glucose + 10% FBS, 0.0211 µM
# [16] = RPMI 5 mM glucose + 10% FBS, 0.0632 µM
# [17] = RPMI 5 mM glucose + 10% FBS, 0.19 µM
# [18] = RPMI 5 mM glucose + 10% FBS, 0.569 µM
# [19] = RPMI 5 mM glucose + 10% FBS, 1.71 µM
# [20] = RPMI 5 mM glucose + 10% FBS, 5.12 µM
# [21] = RPMI 5 mM glucose + 10% FBS, 15.4 µM
# [22] = RPMI 5 mM glucose + 10% FBS, 46.1 µM
# [23] = RPMI 5 mM glucose + 10% dialyzed FBS, 0.000781 µM
# [24] = RPMI 5 mM glucose + 10% dialyzed FBS, 0.00234 µM
# [25] = RPMI 5 mM glucose + 10% dialyzed FBS, 0.00702 µM
# [26] = RPMI 5 mM glucose + 10% dialyzed FBS, 0.0211 µM
# [27] = RPMI 5 mM glucose + 10% dialyzed FBS, 0.0632 µM
# [28] = RPMI 5 mM glucose + 10% dialyzed FBS, 0.19 µM
# [29] = RPMI 5 mM glucose + 10% dialyzed FBS, 0.569 µM
# [30] = RPMI 5 mM glucose + 10% dialyzed FBS, 1.71 µM
# [31] = RPMI 5 mM glucose + 10% dialyzed FBS, 5.12 µM
# [32] = RPMI 5 mM glucose + 10% dialyzed FBS, 15.4 µM
# [33] = RPMI 5 mM glucose + 10% dialyzed FBS, 46.1 µM
SMILES,cell viability [1],cell viability [2],cell viability [3],cell viability [4],cell viability [5],cell viability [6],cell viability [7],cell viability [8],cell viability [9],cell viability [10],cell viability [11],cell viability [12],cell viability [13],cell viability [14],cell viability [15],cell viability [16],cell viability [17],cell viability [18],cell viability [19],cell viability [20],cell viability [21],cell viability [22],cell viability [23],cell viability [24],cell viability [25],cell viability [26],cell viability [27],cell viability [28],cell viability [29],cell viability [30],cell viability [31],cell viability [32],cell viability [33]
C[C@H](NC(=O)Cc1cc(F)cc(F)c1)C(=O)N[C@H](C(=O)OC(C)(C)C)c1ccccc1,94%,90.9%,94.9%,94.1%,94.6%,92.5%,89%,88.3%,86.9%,88%,80.4%,92.3%,91.7%,91.2%,87%,90.7%,95.4%,89.1%,82.7%,87.9%,87.6%,92.8%,78.9%,82.5%,79.8%,79.7%,86.1%,88.8%,78.2%,86.1%,83.7%,77.4%,73.3%
COCCn1c2c([n+](Cc3cnccn3)c1C)C(=O)c1ccccc1C2=O,116%,115%,113%,112%,104%,51.4%,41.9%,15.8%,5.02%,2.55%,1.1%,110%,108%,118%,106%,112%,48.9%,17.6%,6.76%,3.92%,3.27%,2.14%,113%,108%,112%,110%,106%,51.4%,11.7%,5.22%,3.6%,2.56%,1.9%
COc1ccc(F)c(F)c1C(=O)c1cnc(NC2CCN([S+](C)(=O)[O-])CC2)nc1N,111%,116%,114%,115%,118%,112%,87.4%,77.6%,86%,67.6%,3.92%,113%,114%,126%,116%,116%,117%,78.3%,72.2%,63.7%,43.2%,4.54%,114%,121%,116%,127%,116%,113%,86.8%,78.2%,58.4%,45.9%,5.54%
Cc1cn2cc(C(=O)N(C)CCO)cc(N[C@@H]3CCOc4cccc(C)c43)c2n1,107%,106%,109%,112%,111%,119%,118%,115%,119%,110%,117%,105%,119%,107%,113%,118%,117%,115%,123%,115%,105%,114%,106%,109%,105%,116%,118%,114%,118%,115%,110%,118%,109%
CC(=O)OC[C@@H]1O[C@H]([C@H](OC(C)=O)[C@@H]1OC(C)=O)N2\C=C/C(=O)NC2=O,119%,120%,128%,122%,114%,120%,110%,110%,113%,106%,71.8%,121%,117%,121%,116%,117%,108%,102%,113%,108%,114%,98.3%,120%,106%,116%,111%,111%,111%,111%,108%,99.7%,104%,92%
CNC(=O)c1ccc2c(c1)NC(=O)/C2=C(\Nc1cccc(CN(C)C)c1)c1ccccc1,92.9%,97.2%,98.5%,99.8%,100%,101%,98.9%,89.1%,35.8%,87.6%,0.763%,87.3%,98.2%,97.3%,105%,102%,101%,103%,92.5%,36.5%,83.5%,1.21%,86.4%,95.6%,108%,101%,102%,101%,103%,97.5%,35.6%,81.8%,1.03%
c1cc(-c2cnn3cc(-c4ccc(OCCN5CCCCC5)cc4)cnc23)ccn1,90.3%,91.1%,93.8%,91.8%,97%,93.7%,91.7%,91.4%,89.6%,85.6%,2.9%,83.8%,81.9%,96.7%,86.9%,87.5%,79%,76%,84.2%,85.9%,83.2%,50.5%,89.2%,86.8%,84.1%,88.5%,86.8%,85.4%,78.8%,83.7%,78.2%,88%,85.7%
C[C@]1(O)CC(C1)C2=NC(=C3[N]2C=CN=C3N)C4=CC5=C(C=C4)C=CC(=N5)C6=CC=CC=C6 (stereo not given),94%,97.3%,104%,103%,107%,97.7%,105%,97.4%,75.5%,4.9%,1.89%,102%,101%,103%,101%,93.5%,89.6%,96.4%,59.5%,50.3%,3.05%,1.49%,96.1%,96.5%,94.5%,98.2%,101%,94.5%,99%,71%,58.2%,4.69%,1.85%
COc1ccccc1[C@H](c1cccc2ccccc12)[C@@](C)(C#N)C(=O)N1CCC(c2cccc(C(F)(F)F)c2)CC1,99.7%,109%,104%,115%,104%,113%,107%,107%,92.7%,84.5%,68.8%,108%,115%,104%,107%,119%,99.8%,107%,92.4%,80.3%,72.7%,60.7%,108%,108%,117%,112%,122%,111%,108%,112%,88.7%,71.2%,47.9%
CC(=O)N(C)C1(c2ccccc2)CCN(CCC[C@]2(c3ccc(Cl)c(Cl)c3)CCCN(C(=O)c3ccccc3)C2)CC1,115%,114%,115%,116%,114%,108%,91.1%,54.9%,45.1%,33.9%,7.84%,110%,110%,110%,107%,114%,119%,111%,88.4%,55.8%,41.1%,12.1%,110%,107%,110%,112%,117%,108%,99.8%,79.9%,38.9%,18.5%,11.2%
CC(C(C)N1CC(=O)NC(=O)C1)N1CC(=O)NC(=O)C1 (stereo not given),117%,123%,121%,119%,131%,130%,130%,117%,109%,102%,89.6%,,,,,,,,,,,,,,,,,,,,,,
C=CC(=O)Nc1cccc(Sc2nc(Nc3ccc(N4CCN(C)CC4)cc3)ncc2Cl)c1,105%,108%,109%,112%,107%,121%,122%,118%,115%,118%,22.2%,95.7%,107%,113%,121%,116%,122%,120%,115%,124%,117%,19.2%,104%,115%,110%,114%,118%,120%,123%,124%,123%,126%,26.3%
CCCCCCNC(=O)N1\C=C(F)/C(=O)NC1=O,122%,124%,123%,127%,121%,129%,126%,124%,113%,107%,89.3%,,,,,,,,,,,,108%,118%,122%,122%,127%,117%,129%,121%,116%,91.8%,81.8%
CCc1ccc(OCc2ccccc2C(=O)Nc2ccc3nc(C)cc(N)c3c2)cc1,95.7%,107%,110%,114%,118%,116%,113%,121%,110%,6.84%,4.54%,88.2%,107%,112%,113%,108%,114%,118%,123%,108%,41.3%,4.15%,89.3%,103%,108%,111%,104%,110%,112%,121%,103%,47.5%,4.84%
CCNC(=O)Nc1ccc(Oc2ncnc(N)c2/C=N/OC)cc1Cl,107%,114%,107%,116%,123%,119%,119%,118%,106%,101%,120%,111%,113%,117%,117%,121%,128%,126%,121%,117%,111%,131%,106%,116%,119%,122%,124%,123%,118%,122%,119%,107%,107%
O=C(O)CCCCCC(=O)NN=C1CCCC1,96.2%,103%,99.4%,108%,110%,107%,115%,116%,111%,99.7%,73.2%,89%,103%,104%,113%,105%,112%,106%,120%,104%,112%,105%,85.4%,98.8%,103%,100%,107%,98.1%,113%,99.3%,105%,104%,109%
